Reference: patent publication US11952348B1, “4,5-bis(4-bromophenyl)-1-hexyl-2-(4-hydroxy-3-dimethoxyphenyl)-1H-imidazole as an antimicrobial compound” (KING FAISAL UNIVERSITY, priority 2023, dated 2024)

How the values were obtained:
Type in all cases: cell-based
Details in all cases: after 10, 20, 40 and 60 minutes at all dilutions 1:100, 1:200, 1:400, 1:800
[1] = test system: Candida albicans; test: Antimicrobial (antifungal) screening by agar dilution, Candida albicans
Experimental: (§1) The antimicrobial properties of the 4,5-bis(4-bromophenyl)-1-hexyl-2-(4-hydroxy-3-dimethoxyphenyl)-1H-imidazole was studied by the method of agar dilution. Test solutions of each compound was prepared in concentration of 1% using dimethylformamide as a solvent then they were diluted in physiological solution to obtain the final experimental dilutions 1: 100, 1:200, 1:400, 1:800. The effect of these substances were compared with furacillin in a controlled study. The testing microbes used were gram positive bacteria Staphylococcus aureus, gram negative bacteria Pseudomonas aeruginosa and Escherichia coli and Candida albicans fungi were taken. The experiments used for this survey were meat-pentonlu agar (EPA) for cultivation of bacteria and Saburo environment for fungi. Each experiment used 1 ml of test solution on each plate 500 min. Add 2 drops of emulsified with microbes feel. All experimental samples were taken from the agar after 10, 20, 40, 60 minutes in the environment on the basis of Patrk planted. Bacteria were cultivated at a temperature of 37° C. for 1 day and the mushroom was kept in a thermostat for […] at a temperature of 28° C. Then results were checked.

[2] = test system: Escherichia coli; test: Antimicrobial screening by agar dilution, Escherichia coli
Experimental: as §1

[3] = test system: Pseudomonas aeruginosa; test: Antimicrobial screening by agar dilution, Pseudomonas aeruginosa
Experimental: as §1

[4] = test system: Staphylococcus aureus; test: Antimicrobial screening by agar dilution, Staphylococcus aureus
Experimental: as §1

Measured: inhibition activity (summary in words)

CCCCCCn1c(-c2ccc(O)c(OC)c2)nc(-c2ccc(Br)cc2)c1-c1ccc(Br)cc1 [4,5-bis(4-bromophenyl)-1-hexyl-2-(4-hydroxy-3-dimethoxyphenyl)-1H-imidazole]
highest inhibition activity: all assays above
